# According to US11427567B2, “Imidazolyl pyrimidinylamine compounds as CDK2 inhibitors” (Incyte Corporation, priority 2019, dated 2022):
# Target: CDK2/Cyclin E1 (Homo sapiens (Human), UniProt P24941)
# Experiment: CDK2/Cyclin E1 HTRF enzyme activity assay (Example A)
# Type: biochemical
# Details: 1 mM ATP
# Description: Assays were conducted in white 384-well polystyrene plates in a final reaction volume of 8 μL. […] HTRF signals were read after 1 hour at room temperature on a PHERAstar FS plate reader (BMG Labtech). Data was analyzed with IDBS XLFit and GraphPad Prism 5.0 software using a three or four parameter dose response curve to determine IC50 for each compound.
row,Structure (SMILES),IC50
1,"CS(=O)(=O)N1CCC(Nc2ncc(C(F)(F)F)c(-c3cn(-c4ccc(OCCN5CCCC5)cc4C#N)cn3)n2)CC1 [Example 437, 2-(4-(2-((1-(Methylsulfonyl)piperidin-4-yl)amino)-5-(trifluoromethyl)pyrimidin-4-yl)-1H-imidazol-1-yl)-5-(2-(pyrrolidin-1-yl)ethoxy)benzonitrile]",≤ 50 nM
2,"Cn1cnc(-c2nc(NC3CCN(S(C)(=O)=O)CC3)ncc2C(F)(F)F)c1 [Example 11, 4-(1-Methyl-1H-imidazol-4-yl)-N-(1-(methylsulfonyl)piperidin-4-yl)-5-(trifluoromethyl)pyrimidin-2-amine]",≤ 50 nM
3,"CCN(C)Cc1ccc(-n2cnc(-c3nc(NC4CCN(S(C)(=O)=O)CC4)ncc3C(F)(F)F)c2)c(C(F)(F)F)c1 [Example 257, 4-(1-(4-((Ethyl(methyl)amino)methyl)-2-(trifluoromethyl)phenyl)-1H-imidazol-4-yl)-N-(1-(methylsulfonyl)piperidin-4-yl)-5-(trifluoromethyl)pyrimidin-2-amine]",≤ 50 nM
4,"CN(C)Cc1ccc(-n2cnc(-c3nc(NC4CCN(S(C)(=O)=O)CC4)ncc3C(F)(F)F)c2)c(C(F)(F)F)c1 [Example 250, 4-(1-(4-((Dimethylamino)methyl)-2-(trifluoromethyl)phenyl)-1H-imidazol-4-yl)-N-(1-(methylsulfonyl)piperidin-4-yl)-5-(trifluoromethyl)pyrimidin-2-amine]",≤ 50 nM
5,"CS(=O)(=O)N1CCC(Nc2ncc(C(F)(F)F)c(-c3cn(-c4ccc(CN5CCOC5=O)cc4Cl)cn3)n2)CC1 [Example 441, 3-(3-Chloro-4-(4-(2-((1-(methylsulfonyl)piperidin-4-yl)amino)-5-(trifluoromethyl)pyrimidin-4-yl)-1H-imidazol-1-yl)benzyl)oxazolidin-2-one]",≤ 50 nM
6,"CS(=O)(=O)N1CCC(Nc2ncc(C(F)(F)F)c(-c3cn(-c4ccc(CN5CC[C@H](O)C5)cc4C(F)(F)F)cn3)n2)CC1 [Example 260, (S)-1-(4-(4-(2-((1-(Methylsulfonyl)piperidin-4-yl)amino)-5-(trifluoromethyl)pyrimidin-4-yl)-1H-imidazol-1-yl)-(trifluoromethyl)benzyl) pyrrolidin-3-ol]",≤ 50 nM
7,"CS(=O)(=O)N1CCC(Nc2ncc(C(F)(F)F)c(-c3cn(-c4ccc(OC(F)F)cc4C#N)cn3)n2)CC1 [Example 126, 5-(Difluoromethoxy)-2-(4-(2-((1-(methylsulfonyl)piperidin-4-yl)amino)-5-(trifluoromethyl)pyrimidin-4-yl)-1H-imidazol-1-yl)benzonitrile]",≤ 50 nM
8,"Cc1cc(CN2CCC2)ccc1-n1cc(-c2nc(NC3CCN(S(C)(=O)=O)CC3)ncc2C(F)(F)F)nc1C [Example 285, 4-(1-(4-(Azetidin-1-ylmethyl)-2-methylphenyl)-2-methyl-1H-imidazol-4-yl)-N-(1-(methylsulfonyl)piperidin-4-yl)-5-(trifluoromethyl)pyrimidin-2-amine]",≤ 50 nM
9,"Cc1nc(C(N)=O)ccc1-n1cnc(-c2nc(NC3CCN(S(C)(=O)=O)CC3)ncc2C(F)(F)F)c1 [Example 130, 6-Methyl-5-(4-(2-((1-(methylsulfonyl)piperidin-4-yl)amino)-5-(trifluoromethyl)pyrimidin-4-yl)-1H-imidazol-1-yl)picolinamide]",≤ 50 nM
10,"CS(=O)(=O)N1CCC(Nc2ncc(C(F)(F)F)c(-c3cn(-c4ccc5cccnc5c4Cl)cn3)n2)CC1 [Example 165, 4-(1-(8-Chloroquinolin-7-yl)-1H-imidazol-4-yl)-N-(1-(methyl-sulfonyl)piperidin-4-yl)-5-(trifluoromethyl)-pyrimidin-2-amine]",≤ 50 nM
11,"CC(C)NC(C)c1cccc(-n2cnc(-c3nc(NC4CCN(S(C)(=O)=O)CC4)ncc3C(F)(F)F)c2)c1Cl (stereo not drawn) [Example 468, 4-(1-(2-Chloro-3-(1-(isopropylamino)ethyl)phenyl)-1H-imidazol-4-yl)-N-(1-(methylsulfonyl)piperidin-4-yl)-5-(trifluoromethyl)pyrimidin-2-amine]",≤ 50 nM

# Next, values leading:
row,IC50,Structure (SMILES)
1,≤ 50 nM,"Cc1nc(-c2nc(N[C@H]3CCN(S(C)(=O)=O)C[C@H]3F)ncc2C(F)(F)F)cn1-c1cccc(C#N)c1Cl [Example 384, 2-Chloro-3-(4-(2-(((3R,4S)-3-fluoro-1-(methylsulfonyl)piperidin-4-yl)amino)-5-(trifluoromethyl)pyrimi-din-4-yl)-2-methyl-1H-imidazol-1-yl)benzonitrile]"
2,≤ 50 nM,"Cc1nc(-c2nc(NC3CCN(S(C)(=O)=O)CC3)ncc2C(F)(F)F)cn1-c1ccc(N2CCN(C(C)C)CC2)cc1F [Example 105, 4-(1-(2-Fluoro-4-(4-isopropyl-piperazin-1-yl)-phenyl)-2-methyl-1H-imidazol-4-yl)-N-(1-(methyl-sulfonyl)piperidin-4-yl)-5-(trifluoro-methyl)pyrimidin-2-amine]"
3,≤ 50 nM,"Cn1cc(S(=O)(=O)N2CCC(Nc3ncc(C(F)(F)F)c(-c4ncn(C)c4Br)n3)CC2)cn1 [Example 383, 4-(5-Bromo-1-methyl-1H-imidazol-4-yl)-N-(1-((1-methyl-1H-pyrazol-4-yl)sulfonyl)piperidin-4-yl)-5-(trifluoromethyl)pyrimidin-2-amine]"
4,≤ 50 nM,"COC1CN(Cc2ccc(-n3cc(-c4nc(NC5CCN(S(C)(=O)=O)CC5)ncc4C(F)(F)F)nc3C)c(F)c2)C1 [Example 353, 4-(1-(2-Fluoro-4-((3-methoxyazetidin-1-yl)methyl)phenyl)-2-methyl-1H-imidazol-4-yl)-N-(1-(methylsulfonyl)piperidin-4-yl)-5-(trifluoromethyl)pyrimidin-2-amine]"
5,≤ 50 nM,"Cc1nc(-c2nc(NC3CCN(S(C)(=O)=O)CC3)ncc2C(F)(F)F)cn1-c1ccc(C2CCN(C)CC2)cc1F [Example 161, 4-(1-(2-Fluoro-4-(1-methylpiperidin-4-yl)phenyl)-2-methyl-1H-imidazol-4-yl)-N-(1-(methyl-sulfonyl)piperidin-4-yl)-5-(trifluoro-methyl)pyrimidin-2-amine]"
6,≤ 50 nM,"CS(=O)(=O)N1CCC(Nc2ncc(C(F)(F)F)c(-c3cn(-c4cccc(CN5CCC5)c4Cl)cn3)n2)CC1 [Example 366, 4-(1-(3-(Azetidin-1-ylmethyl)-2-chlorophenyl)-1H-imidazol-4-yl)-N-(1-(methylsulfonyl)piperidin-4-yl)-5-(trifluoromethyl)pyrimi-din-2-amine]"
7,≤ 50 nM,"CS(=O)(=O)N1CCC(Nc2ncc(C(F)(F)F)c(-c3cn(-c4ccc(Cn5cnnn5)cc4Cl)cn3)n2)CC1 [Example 244, 4-(1-(4-((1H-Tetrazol-1-yl)methyl)-2-chlorophenyl)-1H-imidazol-4-yl)-N-(1-(methylsulfonyl)piperidin-4-yl)-5-(trifluoromethyl)pyrimidin-2-amine]"
8,≤ 50 nM,"CS(=O)(=O)N1CCC(Nc2ncc(C(F)(F)F)c(-c3cn(-c4cccc(CO)c4Cl)cn3)n2)CC1 [Example 84, (2-Chloro-3-(4-(2-((1-(methylsulfonyl)piperidin-4-yl)amino)-5-(trifluoromethyl)pyrimidin-4-yl)-1H-imidazol-1-yl)phenyl)methanol]"
9,≤ 50 nM,"C[C@@H]1CN(S(=O)(=O)C2CC2)CC[C@@H]1Nc1ncc(C(F)(F)F)c(-c2cn(CC(C)(C)O)cn2)n1 [Example 332, 1-(4-(2-(((3R,4S)-1-(Cyclopropylsulfonyl)-3-methylpiperidin-4-yl)amino)-5-(trifluoromethyl)pyrimidin-4-yl)-1H-imidazol-1-yl)-2-methylpropan-2-ol]"
10,≤ 50 nM,"[2H]C([2H])([2H])NCc1cccc(-n2cnc(-c3nc(NC4CCN(S(C)(=O)=O)CC4)ncc3C(F)(F)F)c2)c1Cl [Example 462, 4-(1-(2-Chloro-3-(((methyl-d3)amino)methyl)phenyl)-1H-imidazol-4-yl)-N-(1-(methylsulfonyl)piperidin-4-yl)-5-(trifluoromethyl)pyrimidin-2-amine]"
11,≤ 50 nM,"CS(=O)(=O)N1CCC(Nc2ncc(C(F)(F)F)c(-c3cn(-c4ccc(CN5CCC5)c(F)c4Cl)cn3)n2)CC1 [Example 269, 4-(1-(4-(Azetidin-1-ylmethyl)-2-chloro-3-fluorophenyl)-1H-imidazol-4-yl)-N-(1-(methylsulfonyl)piperidin-4-yl)-5-(trifluoromethyl)pyrimidin-2-amine]"
12,≤ 50 nM,"CN(C)CCc1ccc(-n2cnc(-c3nc(NC4CCN(S(C)(=O)=O)CC4)ncc3C(F)(F)F)c2)c(Cl)c1 [Example 157, 4-(1-(2-Chloro-4-(2-(dimethylamino)ethyl)phenyl)-1H-imidazol-4-yl)-N-(1-(methylsulfonyl)piperidin-4-yl)-5-(trifluoromethyl)pyrimidin-2-amine]"
13,≤ 50 nM,"CS(=O)(=O)N1CCC(Nc2ncc(C(F)(F)F)c(-c3cn(-c4cccc(CCN5CCC5)c4Cl)cn3)n2)CC1 [Example 373, 4-(1-(3-(2-(Azetidin-1-yl)ethyl)-2-chlorophenyl)-1H-imidazol-4-yl)-N-(1-(methylsulfonyl)piperidin-4-yl)-5-(trifluoromethyl)pyrimi-din-2-amine]"
14,≤ 50 nM,"Cc1c(C#N)cccc1-n1cnc(-c2nc(NC3CCN(S(C)(=O)=O)CC3)ncc2C(F)(F)F)c1 [Example 43, 2-Methyl-3-(4-(2-((1-(methylsulfonyl)piperidin-4-yl)amino)-5-(trifluoromethyl)pyrimidin-4-yl)-1H-imidazol-1-yl)benzonitrile]"
15,≤ 50 nM,"O=S(=O)(NC1CC1)N1CCC(Nc2ncc(C(F)(F)F)c(-c3cn(-c4ccc(CN5CCC5)cc4Cl)cn3)n2)CC1 [Example 230, 4-((4-(1-(4-(Azetidin-1-ylmethyl)-2-chlorophenyl)-1H-imidazol-4-yl)-5-(trifluoromethyl)pyrimidin-2-yl)amino)-N-cyclopropylpiperidine-1-sulfonamide]"
16,≤ 50 nM,"CS(=O)(=O)N1CCC(Nc2ncc(C(F)(F)F)c(-c3cn(-c4c(F)cc(CNC5CC5)cc4F)cn3)n2)CC1 [Example 347, 4-(1-(4-((Cyclopropylamino)methyl)-2,6-difluorophenyl)-1H-imidazol-4-yl)-N-(1-(methylsulfonyl)piperidin-4-yl)-5-(trifluoromethyl)pyrimidin-2-amine]"
